Measurements as given in PubChem BioAssay (NCI).
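Cultured in 96-well plates, cells were exposed to test compound for 48 hours across five concentrations. GI50 is the concentration that inhibits growth by half. TGI denotes the concentration required for complete inhibition of growth.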

Tests used:
Experiment in all cases: NCI-60 cell line screen, 48 h
[1] = tested on: HCT-116 colon
[2] = tested on: LOX IMVI melanoma
[3] = tested on: RXF 393 renal
[4] = tested on: SF-268 CNS
[5] = tested on: SK-OV-3 ovarian
[6] = tested on: SN12C renal
[7] = tested on: UACC-257 melanoma
[8] = tested on: DU-145 prostate
[9] = tested on: MDA-MB-435
[10] = tested on: PC-3 prostate

Structure (SMILES) | TGI [1] | TGI [2] | TGI [3] | TGI [4] | TGI [5] | TGI [6] | TGI [7] | GI50 [8] | TGI [8] | GI50 [1] | GI50 [2] | GI50 [9] | TGI [9] | GI50 [10] | TGI [10] | GI50 [4] | GI50 [5] | GI50 [6] | GI50 [7]
COc1ccc(OCC(C)(C)O)cc1 | > 100 µM | > 100 µM | > 100 µM | > 100 µM | > 100 µM | > 100 µM | > 100 µM |  |  |  |  |  |  |  |  |  |  |  | 
CCCCCCCCCC[N+](C)(C)C | 10.5 µM | 2.95 µM |  | 5.77 µM | 13 µM | 8.66 µM | 7.07 µM | 1940 nM | 4.88 µM | 2340 nM | 1410 nM | 1750 nM | 4.29 µM | 978 nM | 5.16 µM | 1980 nM | 2570 nM | 2950 nM | 2300 nM
COc1ccc2c(c1)c(=O)c1c(NCCCN(C)C)ccc3ncn2c31 | 13 µM | 4.86 µM | 2.28 µM | 16.1 µM | 22.1 µM | 18.9 µM | 27 µM |  | 18.7 µM |  |  |  | 19.4 µM |  | 15.6 µM |  |  |  | 
CSS(C)(=O)=O | > 100 µM | > 100 µM | 59.6 µM | 96.9 µM |  | 45.3 µM | 45.8 µM |  | 45.9 µM |  |  |  | 44.3 µM |  | 48.7 µM |  |  |  | 
CCOC(=O)/C=C/c1c[nH]c(=O)[nH]c1=O | > 75 µM | > 75 µM | > 75 µM | > 75 µM | > 61.2 µM | > 75 µM | > 75 µM |  |  |  |  |  |  |  |  |  |  |  | 
c1ccc(N2N=C3N(c4ccccc4)C2N3c2ccccc2)cc1 | > 100 µM | 62.4 µM | > 100 µM | > 100 µM | > 100 µM | > 100 µM | 55 µM |  | > 100 µM |  |  |  | 31.6 µM |  | > 100 µM |  |  |  | 
COc1ccc(-c2c3c(nc4[nH]c(=S)[nH]c(=S)c24)CCCC3)cc1OC | > 100 µM | 45.3 µM | 57.9 µM | > 100 µM | > 100 µM | 86.2 µM | > 100 µM |  | > 100 µM |  |  |  | > 100 µM |  | 79 µM |  |  |  | 
CCOC(=O)C1=C(C)N(C2OC(COC(C)=O)C(OC(C)=O)C(OC(C)=O)C2OC(C)=O)C(=O)NC1c1ccccc1 (stereo not drawn) | > 100 µM | > 100 µM |  | > 100 µM | > 100 µM | > 100 µM | > 100 µM |  |  |  |  |  |  |  |  |  |  |  | 
CC(c1ccccc1)C(O)S(=O)(=O)O (stereo not drawn) | > 100 µM | > 100 µM | > 100 µM | > 100 µM | > 100 µM | > 100 µM | > 100 µM |  |  |  |  |  |  |  |  |  |  |  | 
CCCCn1c(C)c2c(c1C)C(=O)N(CCN1CCN(c3ccccc3Cl)CC1)C2=O | 34.3 µM | 30.1 µM |  | 32.4 µM | > 100 µM | 61.3 µM | 74.3 µM |  | > 100 µM |  |  |  | 90.3 µM |  | 79.5 µM |  |  |  | 
